In patent US8124793B2, “Derivatives of ethylene methanedisulfonate as cancer chemotherapeutic agents” (priority 2007, dated 2012):

How the values were obtained:
Assay type in all cases: cell-based
SF-295 = assay: NCI screen, growth of human tumor cells: CNS Cancer SF-295
Outline: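 Under the NCI protocol, every compound is profiled with sixty or more data points. Each point ties a cancer type and a molar screening concentration to a percent growth value.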

human cancer cells = assay: NCI screen summary over the cancers tested (negative growth of human cancer cells); details: 10^−4 M conc.; cancers with negative growth / cancers tested
Experimental: In the NCI screening process, each compound was tested and described by a minimum of 60 data points. The test data include, but are not limited to the type of cancer, the molar concentration used in the screen, and the percent growth of the cancer. In some cases, NMR and elemental analysis were used for structural assignment.
The derivatives in the tables are grouped using the same category as in the tables 1-6.

KD488 = assay: NCI screen, growth of human tumor cells: Lymphoma KD488
SU-DAL-7 = assay: NCI screen, growth of human tumor cells: Lymphoma SU-DAL-7; details: SU-DAL-7, 10^−4 molar

## O=C(c1cccc2ccccc12)C1S(=O)(=O)OCCOS1(=O)=O [NSC 679047, ethylene 1-naphthoylmethanedisulfonate]
SF-295; SF-295, 10^−4 molar
  % Growth: −53%
SF-295; SF-295, 10^−5 molar
  % Growth: −50%
SF-295; SF-295, 10^−6 molar
  % Growth: −54%
SF-295; SF-295, 10^−7 molar
  % Growth: −44%
SF-295; SF-295, 10^−8 molar
  % Growth: 70%
Human cancer cells
  Percentage of cancers showing negative growth cancers tested: 10^−4 M conc. = 1/3 = 33%
KD488; KD488, 10^−4 molar
  % Growth: 29%
KD488; KD488, 10^−5 molar
  % Growth: 45%
KD488; KD488, 10^−6 molar
  % Growth: 56%
KD488; KD488, 10^−7 molar
  % Growth: 71%
KD488; KD488, 10^−8 molar
  % Growth: 78%
SU-DAL-7
  % Growth: 42%
